Measured values from ChEMBL document CHEMBL1130486, “Novel 5-amino-6-methylquinolone antibacterials: A new class of non-6-fluoroquinolones” (1997).
Converted amounts (≈) assume the structure as drawn.

What was measured:
[1] = tested on: Escherichia coli; assay: In vitro minimum inhibitory concentration was determined for antibacterial activity against Escherichia coli TEM5 3739E strain.; format: functional
[2] = tested on: Klebsiella aerogenes; assay: In vitro minimum inhibitory concentration was determined for antibacterial activity against Klebsiella aerogenes 1082E strain.; format: functional
[3] = tested on: Pseudomonas aeruginosa; assay: In vitro minimum inhibitory concentration was determined for antibacterial activity against Pseudomonas aeruginosa 1012E strain.; format: functional
[4] = tested on: Acinetobacter calcoaceticus; assay: In vitro minimum inhibitory concentration was determined for antibacterial activity against Acinetobacter calcoaceticus 15473 strain.; format: functional
[5] = tested on: Escherichia coli; assay: In vitro minimum inhibitory concentration was determined for antibacterial activity against Escherichia coli TEM9 2639E strain.; format: functional
[6] = tested on: Bacillus subtilis; assay: In vitro minimum inhibitory concentration was determined for antibacterial activity against Bacillus subtilis ATCC 6633 strain.; format: functional
[7] = tested on: Pseudomonas aeruginosa; assay: In vitro minimum inhibitory concentration was determined for antibacterial activity against Pseudomonas aeruginosa 10145 strain.; format: functional
[8] = tested on: Enterobacter cloacae; assay: In vitro minimum inhibitory concentration was determined for antibacterial activity against Enterobacter cloacae p99 strain.; format: functional
[9] = tested on: Staphylococcus aureus; assay: In vitro minimum inhibitory concentration was determined for antibacterial activity against Staphylococcus aureus 6538p strain.; format: functional
[10] = tested on: Citrobacter koseri; assay: In vitro minimum inhibitory concentration was determined for antibacterial activity against Citrobacter diversus 2046E strain.; format: functional
[11] = tested on: Klebsiella aerogenes; assay: In vitro minimum inhibitory concentration was determined for antibacterial activity against Klebsiella aerogenes 1076E strain.; format: functional
[12] = tested on: Escherichia coli; assay: In vitro minimum inhibitory concentration was determined for antibacterial activity against Escherichia coli 851E strain.; format: functional
[13] = tested on: Staphylococcus epidermidis; assay: In vitro minimum inhibitory concentration was determined for antibacterial activity against Staphylococcus epidermis 887E strain.; format: functional
[14] = tested on: Staphylococcus aureus; assay: In vitro minimum inhibitory concentration was determined for antibacterial activity against Staphylococcus aureus 77 strain.; format: functional
[15] = tested on: Escherichia coli; assay: In vitro minimum inhibitory concentration was determined for antibacterial activity against Escherichia coli 10536 strain; format: functional
[16] = tested on: Salmonella typhimurium; assay: In vitro minimum inhibitory concentration was determined for antibacterial activity against Salmonella Typhimurium 14028 strain.; format: functional, Salmonella enterica subsp. enterica serovar Typhimurium; details: Salmonella enterica
[17] = tested on: Micrococcus luteus; assay: In vitro minimum inhibitory concentration was determined for antibacterial activity against Micrococcus luteus ATCC 9341 strain.; format: functional
[18] = tested on: Enterococcus faecalis; assay: In vitro minimum inhibitory concentration was determined for antibacterial activity against […] 29212 strain.; format: functional
[19] = tested on: Enterobacter cloacae; assay: In vitro minimum inhibitory concentration was determined for antibacterial activity against Enterobacter cloacae 1194E strain.; format: functional
[20] = tested on: Escherichia coli; assay: In vitro minimum inhibitory concentration was determined for antibacterial activity against Escherichia coli 3190Y strain.; format: functional
[21] = tested on: Staphylococcus aureus; assay: In vitro minimum inhibitory concentration was determined for antibacterial activity against Staphylococcus aureus 241 strain.; format: functional
[22] = tested on: Staphylococcus aureus; assay: In vitro minimum inhibitory concentration was determined for antibacterial activity against Staphylococcus aureus giorgio strain.; format: functional
[23] = tested on: Staphylococcus epidermidis; assay: In vitro minimum inhibitory concentration was determined for antibacterial activity against Staphylococcus epidermis 178 strain.; format: functional

| MIC [1] [µg/mL] | MIC [3] [µg/mL] | MIC [5] [µg/mL] | MIC [6] [µg/mL] | MIC [8] [µg/mL] | MIC [12] [µg/mL] | MIC [16] [µg/mL] | SMILES | MIC [2] [µg/mL] | MIC [4] [µg/mL] | MIC [9] [µg/mL] | MIC [10] [µg/mL] | MIC [11] [µg/mL] | MIC [13] [µg/mL] | MIC [14] [µg/mL] | MIC [15] [µg/mL] | MIC [17] [µg/mL] | MIC [18] [µg/mL] | MIC [21] [µg/mL] | MIC [22] [µg/mL] | MIC [23] [µg/mL] | further results |
| --- | --- | --- | --- | --- | --- | --- | --- | --- | --- | --- | --- | --- | --- | --- | --- | --- | --- | --- | --- | --- | --- |
| 0.5 (≈ 1.34 µM) | 1 (≈ 2.67 µM) | 0.13 (≈ 0.347 µM) | 0.016 (≈ 0.0427 µM) | 0.031 (≈ 0.0828 µM) | 0.063 (≈ 0.168 µM) | 0.13 (≈ 0.347 µM) | Cc1c(N2CCC(CN)C2)c(F)c2c(c1N)c(=O)c(C(=O)O)cn2C1CC1 (configuration not stated) | 0.13 (≈ 0.347 µM) | 0.13 (≈ 0.347 µM) | 0.031 (≈ 0.0828 µM) | 0.13 (≈ 0.347 µM) | 0.25 (≈ 0.668 µM) | 0.031 (≈ 0.0828 µM) | 0.063 (≈ 0.168 µM) | 0.031 (≈ 0.0828 µM) | 4 (≈ 10.7 µM) | 0.25 (≈ 0.668 µM) | 8 (≈ 21.4 µM) | 0.031 (≈ 0.0828 µM) | 16 (≈ 42.7 µM) | MIC [7]: 2 µg/mL (≈ 5.34 µM); MIC [19]: 0.031 µg/mL (≈ 0.0828 µM); MIC [20]: 0.016 µg/mL (≈ 0.0427 µM) |
| 1 (≈ 2.77 µM) | 1 (≈ 2.77 µM) | 0.13 (≈ 0.361 µM) | 0.063 (≈ 0.175 µM) | 0.031 (≈ 0.086 µM) | 0.13 (≈ 0.361 µM) | 0.25 (≈ 0.694 µM) | Cc1c(N2CCC(N)C2)c(F)c2c(c1N)c(=O)c(C(=O)O)cn2C1CC1 (configuration not stated) | 0.13 (≈ 0.361 µM) | 0.5 (≈ 1.39 µM) | 0.25 (≈ 0.694 µM) | 0.13 (≈ 0.361 µM) | 0.5 (≈ 1.39 µM) | 0.25 (≈ 0.694 µM) | 0.5 (≈ 1.39 µM) | 0.031 (≈ 0.086 µM) | 8 (≈ 22.2 µM) | 8 (≈ 22.2 µM) | 8 (≈ 22.2 µM) | 0.25 (≈ 0.694 µM) | 16 (≈ 44.4 µM) | MIC [7]: 4 µg/mL (≈ 11.1 µM); MIC [19]: 0.25 µg/mL (≈ 0.694 µM); MIC [20]: 0.031 µg/mL (≈ 0.086 µM) |
| 0.5 (≈ 1.34 µM) | 2 (≈ 5.34 µM) | 0.063 (≈ 0.168 µM) | 0.063 (≈ 0.168 µM) | 0.016 (≈ 0.0427 µM) | 0.063 (≈ 0.168 µM) | 0.13 (≈ 0.347 µM) | Cc1c(N2CCNC(C)C2)c(F)c2c(c1N)c(=O)c(C(=O)O)cn2C1CC1 (configuration not stated) | 0.13 (≈ 0.347 µM) | 0.13 (≈ 0.347 µM) | 0.5 (≈ 1.34 µM) | 0.063 (≈ 0.168 µM) | 0.25 (≈ 0.668 µM) | 0.25 (≈ 0.668 µM) | 0.5 (≈ 1.34 µM) | 0.063 (≈ 0.168 µM) | 8 (≈ 21.4 µM) | 2 (≈ 5.34 µM) | 16 (≈ 42.7 µM) | 0.25 (≈ 0.668 µM) | 16 (≈ 42.7 µM) | MIC [7]: 2 µg/mL (≈ 5.34 µM); MIC [19]: 0.13 µg/mL (≈ 0.347 µM); MIC [20]: 0.016 µg/mL (≈ 0.0427 µM) |

| SMILES | MIC [1] [µg/mL] | MIC [3] [µg/mL] | MIC [5] [µg/mL] | MIC [6] [µg/mL] | MIC [8] [µg/mL] | MIC [12] [µg/mL] | MIC [16] [µg/mL] | MIC [2] [µg/mL] | MIC [4] [µg/mL] | MIC [9] [µg/mL] | MIC [10] [µg/mL] | MIC [11] [µg/mL] | MIC [13] [µg/mL] | MIC [14] [µg/mL] | MIC [15] [µg/mL] | MIC [17] [µg/mL] | MIC [18] [µg/mL] | MIC [21] [µg/mL] | MIC [22] [µg/mL] | MIC [23] [µg/mL] | further results |
| --- | --- | --- | --- | --- | --- | --- | --- | --- | --- | --- | --- | --- | --- | --- | --- | --- | --- | --- | --- | --- | --- |
| Cc1c(N2CCNCC2)c(F)c2c(c1N)c(=O)c(C(=O)O)cn2C1CC1 | 0.5 (≈ 1.39 µM) | 1 (≈ 2.77 µM) | 0.031 (≈ 0.086 µM) | 0.031 (≈ 0.086 µM) | ≤ 0.008 | 0.031 (≈ 0.086 µM) | 0.063 (≈ 0.175 µM) | 0.031 (≈ 0.086 µM) | 0.13 (≈ 0.361 µM) | 0.25 (≈ 0.694 µM) | 0.063 (≈ 0.175 µM) | 0.25 (≈ 0.694 µM) | 0.13 (≈ 0.361 µM) | 0.5 (≈ 1.39 µM) | ≤ 0.008 | 4 (≈ 11.1 µM) | 4 (≈ 11.1 µM) | 16 (≈ 44.4 µM) | 0.25 (≈ 0.694 µM) | 16 (≈ 44.4 µM) | MIC [7]: 2 µg/mL (≈ 5.55 µM); MIC [19]: 0.063 µg/mL (≈ 0.175 µM); MIC [20]: ≤ 0.008 µg/mL |
| O=C(O)c1cn(C2CC2)c2cc(N3CCNCC3)c(F)cc2c1=O [CIPROFLOXACIN] | 0.13 (≈ 0.392 µM) | 0.13 (≈ 0.392 µM) | – | – | – | – | – | ≤ 0.008 | 0.25 (≈ 0.754 µM) | 0.13 (≈ 0.392 µM) | 0.016 (≈ 0.0483 µM) | 0.13 (≈ 0.392 µM) | 0.13 (≈ 0.392 µM) | 0.25 (≈ 0.754 µM) | ≤ 0.008 | 4 (≈ 12.1 µM) | 0.5 (≈ 1.51 µM) | 128 (≈ 386 µM) | 0.25 (≈ 0.754 µM) | 128 (≈ 386 µM) | MIC [20]: ≤ 0.008 µg/mL |
| CC1COc2c(N3CCN(C)CC3)c(F)cc3c(=O)c(C(=O)O)cn1c23 (configuration not stated) [OFLOXACIN] | – | – | 0.063 (≈ 0.174 µM) | 0.063 (≈ 0.174 µM) | 0.031 (≈ 0.0858 µM) | 0.063 (≈ 0.174 µM) | 0.13 (≈ 0.36 µM) | 0.13 (≈ 0.36 µM) | 0.25 (≈ 0.692 µM) | 0.5 (≈ 1.38 µM) | 0.13 (≈ 0.36 µM) | 0.25 (≈ 0.692 µM) | 0.25 (≈ 0.692 µM) | 0.25 (≈ 0.692 µM) | 0.031 (≈ 0.0858 µM) | 2 (≈ 5.53 µM) | 2 (≈ 5.53 µM) | 64 (≈ 177 µM) | 0.5 (≈ 1.38 µM) | 32 (≈ 88.6 µM) | MIC [19]: 0.13 µg/mL (≈ 0.36 µM) |
